This note sets out measurements from US12286437B2, “Cardiac sarcomere inhibitors” (Cytokinetics, Inc., priority 2021, dated 2025).

For data set [1], the system named is bovine cardiac myofibrils. The data set can be described thus: Myofibril assay (ATPase activity of skinned bovine cardiac myofibrils, PK/LDH-coupled). In kind it is biochemical. Particulars: inhibition of steady-state ATPase of bovine cardiac myofibrils; CaCl2 for 50% or 75% activation. As to the method: To evaluate the effect of compounds on the ATPase activity of full-length cardiac myosin in the context of the native sarcomere, skinned myofibril assays were performed. Bovine cardiac myofibrils were obtained by homogenizing bovine cardiac left ventricular tissue in the presence of a detergent such as triton X-100. Such treatment removes membranes and a majority of the soluble cytoplasmic proteins but leaves intact the cardiac sarcomeric acto-myosin apparatus. Myofibril preparations retain the ability to hydrolyze ATP in a Ca^2+ regulated manner. ATPase activities of such myofibril preparations in the presence and absence of compounds were assayed at Ca^2+ concentrations activating to a defined fraction of the maximal rate (i.e., […], 75%). Small molecule agents were assessed for their ability to inhibit the steady-state ATPase activity of bovine cardiac myofibrils using pyruvate kinase and lactate dehydrogenase (PK/LDH)-coupled enzyme system. This assay regenerates myosin-produced ADP into ATP by oxidizing NADH, producing an absorbance change at 340 nm. Prior to testing small molecule agents, the bovine cardiac myofibrils were assessed for their calcium responsiveness and the calcium concentration that achieves either a 50% (pCa50) or 75% (pCa75) activation of the myofibril system was chosen as the final condition for assessing the inhibitory activity of the small molecule agents. All enzymatic activity was measured in a buffered solution containing 12 mM PIPES (piperazine-N,N′-bis(2-ethanesulfonic acid), 2 mM magnesium chloride at pH 6.8 (PM 12 buffer). Final assay conditions were 1 mg/mL of bovine cardiac myofibrils, 4 U/mL pyruvate kinase, 6 U/mL lactate dehydrogenase, 50 μM ATP, 0.1 mg/mL BSA (bovine serum albumin), 10 ppm antifoam, 1 mM DTT, 0.5 mM NADH, 1.5 mM PEP, 0.6 mM EGTA, and an amount of CaCl2 sufficient to achieve either 50% or 75% activation of the myofibril ATPase activity. Results for compounds tested are provided in Table A. Compounds tested were prepared in accordance with the synthetic procedures described herein.

The nature of data set [2]: Dog cassette dosing pharmacokinetics. In kind it is in vivo, beagle dogs. The settings on record: male, beagle, plasma, IV; for Vd: read-out: Vss; for half-life: read-out: t½ (converted). The method, then: Non-naïve male beagle dogs (8 months to 3 years of age, body weight 8-14 kg) sourced from Jiangsu Johnsen Bioresource CO. and/or Beijing Rixinkeji CO., LTD and/or Beijing Marshall Biotechnology CO., LTD were used in this study. All animals for IV administration had free access to food and water. The IV dose solution was prepared in 10% DMA/50% PG/40% HPβCD solution (40% w/v aqueous HPβCD) at a concentration of 0.2 mg/mL. Concentrations of IV dose was measured at the end of the study. PK parameters were calculated using the nominal dose values if the measured values were within 20% of the nominal values. Blood samples were collected by venipuncture of peripheral veins except the dosing vein at pre-dose, 5 15, 30 min, 1, 2, 4, 6, 8 and 24 h post-dose. Blood samples were centrifuged and resultant plasma was frozen for bioanalysis. Plasma samples were stored at −80° C. before analysis. Plasma samples were analyzed for compound concentrations using the LC/MS/MS method. Briefly, a 50 μL aliquot of each plasma sample was mixed with 100 μL of acetonitrile that contained an internal standard. The mixture was vortexed and centrifuged. Ten (10) μL of the resulting solution was injected onto a reverse-phase C18 column and the resultant peaks detected on a LC/MS/MS equipped with a turbo ionspray ionization source. Sample concentrations below the limit of quantification (BLQ) were treated as zero for PK calculations. PK parameters were estimated from individual animals using noncompartmental analysis of the concentration-time data (Phoenix WinNonLin software, version 64; Pharsight, Mountain View, CA). The elimination rate constant (k) was calculated as the absolute value of the slope of the linear regression of logarithm (log) of the concentration versus time for the last three data points of the concentration-time profiles. Apparent elimination half-life (t1/2) values were calculated as ln(2)/k. Area under the concentration-time curve (AUC) values were estimated using linear trapezoidal method. AUCt values were calculated from the dosing time to the last measurable concentration. AUC∞ values were calculated as the sum of the corresponding AUCt and the ratio of the last detectable concentration divided by k. Plasma clearance (CL) was calculated from Dose/AUC∞. Mean resident time extrapolated to infinity (MRT∞) was estimated by moment analysis. Vss was calculated from MRT∞×CL. Maximum concentration (Cmax) and time to reach Cmax (tmax) were recorded as observed. As this was a cross-over study, bioavailability was calculated dAUC∞,po/dAUC∞,iv×100% where dAUC was the dose normalized AUC value from the same animal given IV and PO dose. Data for compounds tested are provided in Table G. Compounds tested were prepared in accordance with the synthetic procedures described herein.

A short description of data set [3]: Rat single dose pharmacokinetics. Particulars: male, Sprague Dawley, plasma, IV. In kind it is in vivo, Sprague Dawley rats. The method, then:
Male Sprague Dawley rats were obtained from Zhejiang Vital River Laboratory Animal Technology Co., Ltd. The animals in IV group had free access to water and food. The animals in PO group were fasted overnight before dosing and provided with food 2 hours post dosing. The IV dose solution was prepared in 10% DMA/50% PG/40% HPβCD solution (40% w/v aqueous HPβCD) at a concentration of 1 mg/mL. The oral dosing suspension was prepared by suspending Test Article in 0.5% HPMC/0.1% Tween 80 in water at a concentration 0.2 mg/mL. Concentrations of IV and PO doses were measured at the end of the study. Pharmacokinetic parameters were calculated using the nominal dose values if the measured values were within 20% of the nominal values. Three rats were dosed IV via a bolus injection via caudal vein. Three rats per dose group were dosed by oral gavage. Blood samples were collected from the jugular vein cannula at predose, 5 (IV only), 15, 30 minutes, and 1, 2, 4, 6, and 24 hours post-dose. Blood volumes were replaced with an equal amount of sterile 0.9% saline. Blood samples were centrifuged and the collected plasma was stored at −80° C. for subsequent analysis. Plasma samples were analyzed for Test Article concentrations using a LC/MS/MS method. Briefly, a 50 μL aliquot of each plasma sample was mixed with 100 μL of acetonitrile that contained an internal standard. The mixture was vortexed and centrifuged. Ten (10) […] of the resulting solution was injected onto a reverse-phase C18 column and the resultant peaks detected on a LC/MS/MS equipped with a turbo ionspray ionization source. Sample concentrations below the limit of quantification (BLQ) were treated as zero for pharmacokinetic calculations. Pharmacokinetic parameters were estimated from individual animals using noncompartmental analysis of the concentration-time data (Phoenix WinNonLin software, version 64; Pharsight, Mountain View, CA). The elimination rate constant (k) was calculated as the absolute value of the slope of the linear regression of logarithm (log) of the concentration versus time for the last three data points of the concentration-time profiles. Apparent elimination half-life (t1/2) values were calculated as ln(2)/k. Area under the concentration-time curve (AUC) values were estimated using linear trapezoidal method. AUCt values were calculated from the dosing time to the last measurable concentration. AUC∞ values were calculated as the sum of the corresponding AUCt and the ratio of the last detectable concentration divided by k (AUCt-∞). Plasma clearance (CL) was calculated from Dose/AUC∞. Mean resident time (MRT) was estimated by moment analysis. Volume of distribution at steady state (Vss) was calculated from MRT∞×CL. Maximum concentration (Cmax) and time to reach Cmax (tmax) were recorded as observed. Bioavailability was calculated from the ratio of dose normalized AUC∞,po of individual rats/mean dAUC∞,iv×100% where dAUC was the dose normalized AUC value. Compounds tested were prepared in accordance with the synthetic procedures described herein.

Data set [4] can be described thus: Monkey cassette dosing pharmacokinetics. The settings on record: IV; for clearance / Vd: male, plasma; for Vd: read-out: Vss. In kind it is in vivo.

Broadly, the clearance is a measure of how efficiently the substance is removed, as volume per time. On to `CC[C@H]1CC[C@H](N2CC(=O)N(Cc3ccc(Cl)cc3)C3(CN(C(N)=O)C3)C2=O)CC1` [Compound 1, 5-(4-chlorobenzyl)-8-((1r,4r)-4-ethylcyclohexyl)-6,9-dioxo-2,5,8-triazaspiro[3.5]nonane-2-carboxamide], for which the “CDMF IC15” value in data set [1] was 800 nM. Besides, in data set [2], the clearance came to 3.65 mL/min/kg, the Vd came to 3.44 L/kg and the half-life is 12.5 h.

With `CC[C@H]1CC[C@H](N2CC(=O)N(Cc3ccc(F)cc3)C3(CN(C(N)=O)C3)C2=O)CC1` [Compound 2, 8-((1r,4r)-4-ethylcyclohexyl)-5-(4-fluorobenzyl)-6,9-dioxo-2,5,8-triazaspiro[3.5]nonane-2-carboxamide], the “CDMF IC15” value in data set [1] was 2100 nM. Moreover, in data set [2], the clearance was determined as 4.06 mL/min/kg, the Vd was 1.99 L/kg and the half-life is 7.34 h.

On to `C[C@H]1CC[C@H](N2CC(=O)N(Cc3ccc(Cl)c(F)c3)C3(CN(C(N)=O)C3)C2=O)CC1` [Compound 3, 5-(4-chloro-3-fluorobenzyl)-8-((1r,4r)-4-methylcyclohexyl)-6,9-dioxo-2,5,8-triazaspiro[3.5]nonane-2-carboxamide], for which the “CDMF IC15” value in data set [1] was found to be 700 nM. In data set [3], this compound showed a clearance of 78.5 mL/min/kg and a half-life of 2.6 h. Moreover, the Vd in data set [3] (read-out: Vss) worked out at 14.7 L/kg. In data set [2], the clearance amounted to 7.16 mL/min/kg, the Vd turned out to be 6.9 L/kg and the half-life was 13.1 h.

Consider `C[C@H]1CC[C@H](N2CC(=O)N(Cc3ccc(Cl)cc3)C3(CN(c4cccnn4)C3)C2=O)CC1` [Compound 10, 5-(4-chlorobenzyl)-8-((1r,4r)-4-methylcyclohexyl)-2-(pyridazin-3-yl)-2,5,8-triazaspiro[3.5]nonane-6,9-dione], for which the “CDMF IC15” value in data set [1] turned out to be 300 nM. In data set [2], the clearance amounted to 36.3 mL/min/kg, the Vd turned out to be 18.6 L/kg and the half-life is 9.38 h.

`CC[C@H]1CC[C@H](N2CC(=O)N(Cc3ccc(F)c(F)c3)C3(CN(C(N)=O)C3)C2=O)CC1` [Compound 11, 5-(3,4-difluorobenzyl)-8-((1r,4r)-4-ethylcyclohexyl)-6,9-dioxo-2,5,8-triazaspiro[3.5]nonane-2-carboxamide]: the “CDMF IC15” value in data set [1] came out at 700 nM. In data set [2], the clearance was 6.3 mL/min/kg, the Vd was 4.42 L/kg and the half-life is 9.66 h. In addition, in data set [4], the “t l/2” value is listed as 3.03 h, the clearance stood at 33.1 mL/min/kg and the Vd came to 7.26 L/kg.

`C[C@H]1CC[C@H](N2CC(=O)N(Cc3ccc(F)c(F)c3)C3(CN(c4cccnn4)C3)C2=O)CC1` [Compound 12, 5-(3,4-difluorobenzyl)-8-((1r,4r)-4-methylcyclohexyl)-2-(pyridazin-3-yl)-2,5,8-triazaspiro[3.5]nonane-6,9-dione]: the “CDMF IC15” value in data set [1] was found to be 400 nM. In data set [2], the clearance turned out to be 34.4 mL/min/kg, the Vd was found to be 17.8 L/kg and the half-life was 7.39 h.

With `CC[C@H](C)N1CC(=O)N(Cc2ccc(F)c(F)c2)C2(CN(c3cccnn3)C2)C1=O` [Compound 14, (S)-8-(sec-butyl)-5-(3,4-difluorobenzyl)-2-(pyridazin-3-yl)-2,5,8-triazaspiro[3.5]nonane-6,9-dione], the “CDMF IC15” value in data set [1] is 1300 nM. In addition, in data set [2], the clearance was 36.5 mL/min/kg, the Vd is 6.44 L/kg and the half-life is 2.43 h. In data set [4], the “t l/2” value turned out to be 1.1 h, the clearance was determined as 17.1 mL/min/kg and the Vd is 1.48 L/kg.

With `CCC(CC)N1CC(=O)N(Cc2ccc(F)c(F)c2)C2(CN(c3cccnn3)C2)C1=O` [Compound 15, 5-(3,4-difluorobenzyl)-8-(pentan-3-yl)-2-(pyridazin-3-yl)-2,5,8-triazaspiro[3.5]nonane-6,9-dione], the “CDMF IC15” value in data set [1] is 1400 nM. Also, in data set [2], the clearance was determined as 24.2 mL/min/kg, the Vd is 2.84 L/kg and the half-life is 1.49 h.

For `CC[C@H](C)N1CC(=O)N(Cc2ccc(F)c(C)c2)C2(CN(c3cccnn3)C2)C1=O` [Compound 16, (S)-8-(sec-butyl)-5-(4-fluoro-3-methylbenzyl)-2-(pyridazin-3-yl)-2,5,8-triazaspiro[3.5]nonane-6,9-dione], the “CDMF IC15” value in data set [1] amounted to 900 nM. Also, in data set [2], the clearance was determined as 33 mL/min/kg, the Vd stood at 7.08 L/kg and the half-life is 3.07 h.

As to `C[C@H]1CC[C@H](N2CC(=O)N(Cc3ccc(F)cc3)C3(CN(c4cccnn4)C3)C2=O)CC1` [Compound 17, 5-(4-fluorobenzyl)-8-((1r,4r)-4-methylcyclohexyl)-2-(pyridazin-3-yl)-2,5,8-triazaspiro[3.5]nonane-6,9-dione], the “CDMF IC15” value in data set [1] was determined as 900 nM. Also, in data set [2], the clearance was 41.9 mL/min/kg, the Vd turned out to be 8.25 L/kg and the half-life was 3.02 h.
